Values joined by “and” are separate entries in the source; they are usually repeats but may differ in a detail not shown here. Equal entries are not always repeated.
Legend:
[1] = Pyrogenous activity according to the method of USP XXII; format: in vivo
Protocol: The pyrogenous activity was determined according to the method of USP XXII.

peritoneal macrophages [2] = assay: Activation of peritoneal macrophages without additional in vitro stimulation with PMA (ferricytochrome C reduction); format: in vivo, female HAN-NmRI strain mice; details: for increase of macrophage activity: versus control
Protocol: (§1) Immunological studies were performed on female HAN-NmRI strain mice of 3-4 weeks, weighing from 18-21 g.
(§2) In tests 1.1 to 1.5, the animals were first administered the Brewer's thioglycolate medium by i.p. injection, which was followed after 6 hours by the injection of 0.5 ml of a solution containing 25 μg, 2.5 μg and 0.25 μg respectively of N-acetyl-muramyl-L-alanyl-D-isoglutamine (muramyl dipeptide, MDP) or of N-(7-oxooctanoyl)-L-alanyl-D-isoglutamine (compound 1, Example 19). Equal doses were administered to the animals on days 2 and 3. On day 4 the animals were sacrificed and the spleen and the peritoneal macrophages were isolated.
(§3) The peritoneal cavity of the animals was rinsed with 4 ml of ice-cold RPMI 1640 medium. The cytolysis of erythrocytes was effected with 0.2% NaCl. The remaining cells were washed twice in a cooled centrifuge at 4° C. and 1500 rpm for 5 minutes with ice-cold RPMI 1640 medium. The cells were re-suspended and the concentration was adjusted to 1.5×10^6/ml. The cell suspension was distributed among the flat bottom wells of a microtitration plate (T grade, Nunc, Denmark). After incubating for 2 hours at 37° C., 5% CO2 and 95% humidity, the wells were rinsed with warm RPMI 1640 medium and the adhering macrophages were used for testing.
(§4) After incubating for 90 minutes at 37° C., 5% CO2 and 95% humidity, the absorbance was measured at the wavelength of 570 nm.
(§5) The results are shown in Table 2 as the difference in the absorbance of the test sample and of the blank, calculated for 1 mg of cell protein.

peritoneal macrophages [3] = assay: Determination of the number of macrophages; format: in vivo, female HAN-NmRI strain mice; details: 25, 2.5 and 0.25 μg on 3 consecutive days; peritoneal cavity washings three days after thioglycolate stimulation
Protocol: as §1, §2
The number of macrophages in the peritoneal cavity washings was determined three days after the stimulation with Brewer's thioglycolate medium. The cells were suspended in ice-cold RPMI 1640 medium, to which trypan blue was added, and counted in Neubauer's chamber.

Fibrosarcoma SA-1 = assay: Antitumour activity, tumour growth delay; format: in vivo, A/J strain mice; details: for Time needed for the tumour growth to the volume of 150 mm^3, Number of days (± SD) / Growth delay (± SD): 5 doses; for Time needed for the tumour growth to the volume of 150 mm^3, Number of days (± SD): control 5.5 ± 0.8; for Growth delay (± SD): versus control group
Protocol: The studies were performed on A/J strain mice (Institute Rudjer Boskovic, Zagreb, Yugoslavia) of 8 to 10 weeks. All animals used in the same experiment were of the same sex and age.
Fibrosarcoma SA-1 was used as the experimental tumour model. Tumorous cells were obtained from the ascitic form of the SA-1 tumour of the syngeneic A/J mouse. They were implanted into animals dorsilaterally by s.c. injection of 5×10^5 live tumour cells. The testing was started after the tumours had grown to a volume of 35 mm^3. The test substance was injected i.p. on five consecutive days in a dose of 2.5 or 25 μg. The growth of the tumours was monitored by measuring the diameters and the thickness of the tumours. The tumour volumes were calculated according to the formula 0.523×a×b×c (a, b and c being the tumour diameters).
The delay in the growth of each individual tumour was obtained by deducting the relevant time of growth of the tumour in the control group from the time needed for the growth of the tumour to reach the volume of 150 mm^3.

lymphocytes B = assay: Determination of haemolytic plaques for the assessment of the maturation of lymphocytes B; format: in vivo, female HAN-NmRI strain mice; details: 1 μg/mouse one day after sheep erythrocytes i.p.; control 86±12.7
Protocol: as §1
A 1% suspension of sheep erythrocytes (Institute of Microbiology, Faculty of Medicine, Ljubljana, Yugoslavia) in physiological saline was used for the immunisation. First, individual mice were administered 0.2 ml of this suspension by i.p. injection, followed next day by 0.1 ml (1 μg/mouse) of the test substance. The immunisation was completed on the fifth day after the administration of sheep erythrocytes and the mice were sacrificed.
Their spleens were removed and homogenized in Parker 199 Medium with added amminoacids, streptomycin and sodium carbonate (Torlak, Beograd, Yugoslavia). The lymphocytes were separated on the Ficol Separating Medium (Pharmacia, Uppsala, Sweden). After repeated rinsing with Parker 199 Medium, the cells were resuspended in RPMI 1640 nutrient medium with added 10% of fetal calf serum and streptomycin. To 50 μl of the cell suspension, 450 μl of trypan blue were added and the cells were counted in Neubauer's chamber. The number of lymphocytes per ml of the cell suspension was calculated. […] After the completion of the incubation, the plaques were counted under microscope.
The number of plaques per 1×10^6 cells was calculated according to the following equations: [formula]

[4] = Toxicity, average lethal dose (LD50); format: in vivo
peritoneal macrophages [5] = assay: Activation of peritoneal macrophages with additional in vitro stimulation with PMA (ferricytochrome C reduction); format: in vivo, female HAN-NmRI strain mice; details: for increase of macrophage activity: versus control
Protocol: as §1, §2, §3, §4, §5

[6] = tested on: splenic lymphocytes B and lymphocytes T; assay: Determination of the number of lymphocytes B and lymphocytes T; format: in vivo, female HAN-NmRI strain mice; details: 25, 2.5 and 0.25 μg by injection on 3 consecutive days after Brewer's thioglycolate medium i.p.; spleen isolated day 4
Protocol: as §1, §2
To the isolated splenic lymphocytes there were added fluorescein isothiocyanate labelled antimouse antibodies (for the determination of lymphocytes B) and anti-Thy 1 monoclonal antibodies (for the determination of lymphocytes T) respectively. After incubation and rinsing with RPMI 1640 medium (Gibco, Great Britain), the lymphocytes were counted by fluorescence microscopy.

[7] = tested on: splenic lymphocytes (lymphocytes T); assay: Blast transformation of lymphocytes by mithogens (concanavalin A, tritium labelled thymidine incorporation); format: in vivo, female HAN-NmRI strain mice; details: for Amount of active thymidine incoporated in lymphocyte DNA (cpm), x ± s.e.m: lymphocytes stimulated in vitro with concanavalin A
Protocol: as §1, §2
Isolated splenic lymphocytes were prepared in a concentration of 1×10^6 /ml in the RPMI 1640 medium, to which there were added 10% of foetal calf serum (FCS) (Sera-Lab, Great Britain), 1 ml of 200 mM L-glutamine solution and 1 ml of an antibiotic solution (100 U/ml of penicillin and 100 μg/ml of streptomycin) for 100 ml of complete medium. To each flat bottom well of a microtitration plate (T grade, Nunc, Denmark) 100 μl of the cell suspension were distributed. The cells were stimulated in vitro by adding concanavalin A (con A) (Pharmacia, Sweden) at respective concentrations of 16, 8, and 4 μg/ml. Control lymphocyte cultures were grown in basal medium only. The cells were then incubated at 37° C., 5% CO2 and 95% humidity for 2 days, followed by the addition of tritium labelled thymidine. After 16 hours the samples were prepared for the measurement in a β-counter. The results were expressed as incorporation indexes with respect to the control group of the animals.

[8] = daily dose 0.25 μg for 3 consecutive days
[9] = daily dose 2.5 μg for 3 consecutive days
[10] = daily dose 25 μg for 3 consecutive days

CC(=O)CCCCCC(=O)N[C@@H](C)C(=O)N[C@H](CCC(=O)O)C(N)=O [Compound 1, N-(7-oxooctanoyl)-L-alanyl-D-isoglutamine]
pyrogenous activity [1]: did not show any pyrogenous activity | dose dependence of macrophage activation (peritoneal macrophages [2]; 0.25 to 25 μg): dose-dependent | Difference in absorbancies of the test sample and of the blank per mg of cell protein, x ± s.e.m (peritoneal macrophages [2]; daily dose 0.25 μg): 273 ± 40 | Difference in absorbancies of the test sample and of the blank per mg of cell protein, x ± s.e.m (peritoneal macrophages [2]; daily dose 2.5 μg): 387 ± 56 | Difference in absorbancies of the test sample and of the blank per mg of cell protein, x ± s.e.m (peritoneal macrophages [2]; daily dose 25 μg): 518 ± 20 | increase of macrophage activity (peritoneal macrophages [2]; dose 0.25 μg): did not increase the activity | increase of macrophage activity (peritoneal macrophages [2]; dose 2.5 μg): 40% | increase of macrophage activity (peritoneal macrophages [2]; dose 25 μg): 90% | difference in macrophage activation between muramyl dipeptide and compound 1 (peritoneal macrophages [2]; doses of 2.5 and 25 μg, p>0.05): no statistically significant difference | number of peritoneal macrophages (peritoneal macrophages [3]): not altered to a statistically significant extent | Time needed for the tumour growth to the volume of 150 mm^3, Number of days (± SD) (Fibrosarcoma SA-1; 2.5 μg daily i.p.): 7.3 ± 1.5 days | Growth delay (± SD) (Fibrosarcoma SA-1; 2.5 μg daily i.p.): 1.8 ± 0.5 | Time needed for the tumour growth to the volume of 150 mm^3, Number of days (± SD) (Fibrosarcoma SA-1; 25.0 μg daily i.p.): 7.0 ± 1.7 days | Growth delay (± SD) (Fibrosarcoma SA-1; 25.0 μg daily i.p.): 1.5 ± 0.5 | difference in antitumour activity between the higher and the lower dose (Fibrosarcoma SA-1; 25 μg versus 2.5 μg): no statistically significant difference | antitumour activity in comparison to the control (Fibrosarcoma SA-1; dose of 2.5 μg and dose of 25 μg): moderate and statistically significant | number of plaques (per 1×10^6 cells), x±s.e.m (lymphocytes B): 170±39.9 and 245±75.5 | factor by which the immunologically effective dose is lower than LD50 ([4]; all described immunological effects): at least 2000 times | average lethal dose (LD50) ([4]; i.v. application, male mice): > 250 mg/kg | Difference in absorbancies of the test sample and of the blank per mg of cell protein, x ± s.e.m (peritoneal macrophages [5]; [8]): 1480 ± 336 | Difference in absorbancies of the test sample and of the blank per mg of cell protein, x ± s.e.m (peritoneal macrophages [5]; [9]): 1630 ± 297 | Difference in absorbancies of the test sample and of the blank per mg of cell protein, x ± s.e.m (peritoneal macrophages [5]; [10]): 2200 ± 177 | increase of macrophage activity (peritoneal macrophages [5]; dose 0.25 μg (lowest dose)): about 50% | increase of macrophage activity (peritoneal macrophages [5]; dose 2.5 μg): about 60% | increase of macrophage activity (peritoneal macrophages [5]; dose 25 μg): about 120% | difference in macrophage activation between muramyl dipeptide and compound 1 (peritoneal macrophages [5]; doses of 2.5 and 25 μg, p>0.05): no statistically significant difference | number of splenic lymphocytes B [6]: Neither the number of splenic lymphocites B nor of lymphocytes T was altered to a statistically significant extent | number of splenic lymphocytes T [6]: Neither the number of splenic lymphocites B nor of lymphocytes T was altered to a statistically significant extent | Amount of active thymidine incoporated in lymphocyte DNA (cpm), x ± s.e.m [7, 8]: 16860 ± 5210 cpm | Amount of active thymidine incoporated in lymphocyte DNA (cpm), x ± s.e.m [7, 9]: 19080 ± 5470 cpm | Amount of active thymidine incoporated in lymphocyte DNA (cpm), x ± s.e.m [7, 10]: 16380 ± 2950 cpm | immunomodulatory effect in lymphocytes T compared with MDP ([7]; dose of 25 μg): statistically greater | increase of the blastic activity of lymphocytes T ([7]; dose of 25 μg, concanavalin A, versus control, p<0.05): about 70%

Source: patent US5514654A, “N-acyldipeptides, processes for the preparation thereof and pharmaceutical compositions containing the same” (priority 1990, dated 1996)
